Test results: patent US8349852B2, “Quinazolinone derivatives useful as vanilloid antagonists” (Novartis AG, priority 2009, dated 2013)

Target: human TRPV1 (Homo sapiens, UniProt Q8NER1)
Assay: inhibition of low pH-, capsaicin-, anandamide- and NADA-stimulation of human TRPV1
Type: cell-based
Excerpt: The compounds of formulae (I) and (Ia) and I(B) in crystal form B, and their pharmaceutically acceptable salts and, where possible, pharmaceutically acceptable acid addition salts, have beneficial pharmacological activity and, therefore, are useful as pharmaceuticals.

Chain of human TRPV1 (Q8NER1 whole entry): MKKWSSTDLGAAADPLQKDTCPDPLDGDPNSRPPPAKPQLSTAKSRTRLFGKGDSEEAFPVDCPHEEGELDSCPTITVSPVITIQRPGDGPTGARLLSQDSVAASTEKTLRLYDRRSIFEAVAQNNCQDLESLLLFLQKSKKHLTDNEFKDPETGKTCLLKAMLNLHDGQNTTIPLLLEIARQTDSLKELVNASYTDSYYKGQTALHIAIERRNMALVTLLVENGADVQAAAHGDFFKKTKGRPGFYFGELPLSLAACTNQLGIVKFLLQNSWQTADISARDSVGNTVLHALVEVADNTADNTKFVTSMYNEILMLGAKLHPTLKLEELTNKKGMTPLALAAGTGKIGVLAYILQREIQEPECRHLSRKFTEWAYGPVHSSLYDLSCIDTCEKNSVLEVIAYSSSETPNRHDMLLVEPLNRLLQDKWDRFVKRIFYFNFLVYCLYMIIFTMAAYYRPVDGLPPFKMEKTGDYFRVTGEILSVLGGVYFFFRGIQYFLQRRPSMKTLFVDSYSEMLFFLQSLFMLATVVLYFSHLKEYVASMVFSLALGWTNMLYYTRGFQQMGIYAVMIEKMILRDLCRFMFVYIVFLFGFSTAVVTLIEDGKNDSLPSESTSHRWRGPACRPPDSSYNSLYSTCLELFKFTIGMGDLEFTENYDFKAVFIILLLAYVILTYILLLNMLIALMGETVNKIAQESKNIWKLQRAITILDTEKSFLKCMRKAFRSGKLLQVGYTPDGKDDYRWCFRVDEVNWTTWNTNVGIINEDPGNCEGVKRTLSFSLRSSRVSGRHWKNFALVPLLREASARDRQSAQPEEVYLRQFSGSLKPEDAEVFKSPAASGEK

CC(C)c1nc2cc(O)ccc2c(=O)n1-c1ccc(C#N)cc1 [Example 1, 4-(7-hydroxy-2-isopropyl-4-oxo-4H-quinazolin-3-yl)-benzonitrile crystal form B]
nature of antagonist activity at human TRPV1: non-competitive and reversible | IC50 (IC50, inhibition of NADA-stimulation of human TRPV1, stimulus: NADA): 27 nM | IC50 (IC50, inhibition of anandamide-stimulation of human TRPV1, stimulus: anandamide): 10 nM | IC50 (IC50, inhibition of capsaicin-stimulation of human TRPV1, stimulus: capsaicin): 12 nM | IC50 (IC50, inhibition of low pH-stimulation of human TRPV1, stimulus: low pH): 5 nM
